{
  "source": "patent US20150056195A1",
  "about": "“COMPOSITIONS AND METHODS FOR INIHIBITING TUMORIGENICITY OF SENESCENT CANCER CELLS INDUCED BY CHEMOTHERAPY” (INSERM (INSTITUT NATIONAL DE LA SANTE ET DE LA RECHERCHE …, priority 2013, published 2015)",
  "key": {"melanoma cell lines [1]": {"tested_on": "melanoma cell lines", "assay": "Cell counting and cell death", "type": "cell-based, human", "details": "501mel and other melanoma cells"}, "501mel melanoma cells [2]": {"tested_on": "501mel melanoma cells", "assay": "qRT-PCR of mesenchymal, stemness and MITF transcripts", "type": "cell-based, human", "details": "IL6 20 ng/ml, mRNA and protein levels", "experimental": "mRNA isolation was performed with Trizol (Invitrogen), according to standard procedure. QRT-PCR was carried out with SYBR® Green I and Multiscribe Reverse Transcriptase (Promega) and monitored by an ABI Prism 7900 Sequence Detection System (Applied Biosystems, Foster City, Calif.). Detection of SB34 gene was used to normalize the results. Primer sequences for each cDNA were designed using either Primer Express Software (Applied Biosystems) or qPrimer depot (http://primerdepot.nci.nih.gov) and are available upon request."}, "501mel cells [3]": {"tested_on": "501mel cells", "assay": "Flow cytometry of MITF content (low-MITF population)", "type": "cell-based, human", "details": "IL6 20 ng/ml, 48 hrs; control 2"}, "501mel cells [4]": {"tested_on": "501mel cells", "assay": "CFSE labeling, number of cell divisions by FACS", "type": "cell-based, human", "details": "IL6 20 ng/ml, 72 hrs; control 5.65", "experimental": "For the in vitro CFSE assay, cells were labeled with 2 μmol/l of CFSE according to the manufacturer's protocol (Invitrogen), then plated and treated with the secretome of control (SCMC) or senescent melanoma cells (SSMC) or recombinant IL6 (20 ng/ml). Cells were detached and analyzed by flow cytometry using MACSQuant (Miltenyi biotech). Cells were exposed to control (Cont) or senescent secretome (SSMC). Seventy-two hours later, cells were detached in phosphate-buffered saline/EDTA 2 mM and stained with DAPI to exclude dead cells. Fluorescence was measured by using the FL1/FL2 channels of a MACSQuant. Data were analyzed with MACSQuant software (Miltenyi biotech)."}, "STAT3": {"tested_on": "STAT3", "assay": "Western blot of STAT3, ERK and AKT signaling", "type": "cell-based, human", "details": "501mel; for AKT and ERK phosphorylation / STAT3 activation (tyr705-phosphorylation): IL6 20 ng/ml or CCL2 200 ng/ml; for STAT3 activation (tyr705-phosphorylation): time course", "experimental": "(§1) Western blots were carried out as previously described^48. Briefly, cell lysates (30 μg) were separated by SDS-PAGE, transferred on to a PVDF membrane and then exposed to the appropriate primary and HRP-linked secondary antibodies. Proteins were visualized with the ECL system (Amersham). The western blots shown are representative of at least 3 independent experiments."}, "501mel melanoma cells [5]": {"tested_on": "501mel melanoma cells", "assay": "Xenograft tumor model in athymic nude mice", "type": "in vivo", "details": "cells exposed in vitro 48 hrs or transfected, then 4x10^6 cells/mouse subcutaneously", "experimental": "Mice were randomly divided into 3 groups of 6 mice. 501mel melanoma cells were transfected with control (siC) or STAT3 (siSTAT3) siRNA and were exposed in vitro to the secretome of senescent melanoma cells (SSMC) or to recombinant CCL2 (200 ng/ml) or IL6 (20 ng/ml) for 48 hrs, washed twice with phosphate-buffered saline and then inoculated subcutaneously (4×10^6 cells/mouse) into 6-week-old female immune-deficient Athymic Nude FOXN1^nu mice (Harlan Laboratory). The growth tumor curves were determined by measuring the tumor volume using the equation V=(L×W2)/2. Mice were killed by CO2 inhalation and tumors were taken."}, "melanoma cell lines [6]": {"tested_on": "melanoma cell lines", "assay": "Western blot of MITF, ECAD, FN1, NANOG, OCT4", "type": "cell-based, human", "details": "three melanoma cell lines exposed 48 hrs to secretome of cells rendered senescent by the drug (temozolomide 900 nM, fotemustine 40 nM)", "experimental": "as §1"}},
  "data": [
    {"molecule": "CN[C@@H]1C[C@H]2O[C@@](C)([C@@H]1OC)n1c3ccccc3c3c4c(c5c6ccccc6n2c5c31)C(=O)NC4", "note": "[staurosporine]", "values": [
      {"measurement": "cell death", "setting": "melanoma cell lines [1]", "result": "positive control"}
    ]},
    {"molecule": "IL6: recombinant human IL6 from R&D Systems, used at 20 ng/ml", "values": [
      {"measurement": "NANOG and OCT4 expression", "setting": "501mel melanoma cells [2]", "result": "enhanced"},
      {"measurement": "amount of MITF", "setting": "501mel melanoma cells [2]", "result": "reduced"},
      {"measurement": "low-MITF population", "setting": "501mel cells [3]", "result": 7, "unit": "%"},
      {"measurement": "percentage of cells that underwent 0/1 division", "setting": "501mel cells [4]", "result": 18.3, "unit": "%"},
      {"measurement": "time to rapid and robust STAT3 phosphorylation", "setting": "STAT3; IL6 20 ng/ml", "result": "≤ 5", "unit": "min"},
      {"measurement": "AKT and ERK phosphorylation", "setting": "STAT3", "result": "no or very weak stimulation"},
      {"measurement": "STAT3 activation (tyr705-phosphorylation)", "setting": "STAT3", "result": "dramatic increase"},
      {"measurement": "tumor formation of xenografted 501mel cells", "setting": "501mel melanoma cells [5]", "result": "gave rise to tumors"}
    ]},
    {"molecule": "CCOP(=O)(OCC)C(C)NC(=O)N(CCCl)N=O", "note": "(stereo not drawn) [fotemustine]", "values": [
      {"measurement": "E-Cadherin and MITF protein level", "setting": "melanoma cell lines [6]", "result": "decrease"},
      {"measurement": "expression of Fibronectin1", "setting": "melanoma cell lines [6]", "result": "increased expression"}
    ]},
    {"molecule": "CCL2: recombinant human CCL2 from R&D Systems, used at 200 ng/ml", "values": [
      {"measurement": "time of maximum STAT3 phosphorylation", "setting": "STAT3; CCL2 200 ng/ml", "result": 60, "unit": "min"},
      {"measurement": "AKT and ERK phosphorylation", "setting": "STAT3", "result": "no or very weak stimulation"},
      {"measurement": "STAT3 activation (tyr705-phosphorylation)", "setting": "STAT3", "result": "dramatic increase"},
      {"measurement": "tumor formation of xenografted 501mel cells", "setting": "501mel melanoma cells [5]", "result": "gave rise to tumors"}
    ]}
  ]
}
